What was measured:
[1] = system: Intraocular Pressure of Rabbit; test: Intraocular pressure lowering effect in rabbits (eye drop instillation, tonometer); type: in vivo, Male Dutch rabbits; conditions: for Intraocular pressure, 1 hr: 1 hr after instillation of 50 μl of 0.5% eye drops into the right eye; for Intraocular pressure, 1 hr / Intraocular pressure, 2 hr / Intraocular pressure, 3 hr / Intraocular pressure, 4 hr / Intraocular pressure, 0 hr: mean ± SD (n = 4-5); for Intraocular pressure, 2 hr: 2 hr after instillation of 50 μl of 0.5% eye drops into the right eye; for Intraocular pressure, 3 hr: 3 hr after instillation of 50 μl of 0.5% eye drops into the right eye; for Intraocular pressure, 4 hr: 4 hr after instillation of 50 μl of 0.5% eye drops into the right eye; for Intraocular pressure, 0 hr: initial value (0 hr) before instillation
Experimental: The present compound was tested for its intraocular pressure lowering effect.
Male Dutch rabbits of about 2.5 kg body weight were used in the test.
Intraocular pressure was measured by means of a contact type tonometer (ALCON Applanation Pneumatonograph) after instillation of oxybuprocaine hydrochloride [Anelocal (registered trademark) eye drops: SENJU Pharmaceutical Co., Ltd.] into both eyes of the rabbits for local anesthesia.
Eye drops were prepared each containing one of the test compounds at a concentration of 0.5% and 50 μl of it was instilled into the right eye. Intraocular pressure of both eyes was measured over time (0, 1, 2, 3, 4 hours). For analysis, Student t-test was conducted for the intraocular pressure measured at each time against the initial value.

[2] = Radical scavenging ability on the stable radical DPPH; conditions: for IC50: DPPH radical; for Radical scavenging activity (in words) / Radical scavenging rate (%): DPPH; for Radical scavenging activity (in words): 1-1000 μM; for Radical scavenging rate (%): 20 minutes, absorbance at 517 nm
Experimental: The present compound was tested for its scavenging ability on a stable radical of 1,1-diphenyl-2-picrylhydrazide (DPPH).
The test was carried out according to the method described by Blois, M. S., Nature, 181: 1199 ([…]).
Each of the test compound was dissolved in purified water to prepare 10^−5-10^−2 M test solutions. To 300 μl each of the test solutions was added 2.7 ml of a […] solution of the stable radical, DPPH, in ethanol and stirred. The mixture was allowed to stand for 20 minutes, and absorbance at 517 nm was measured. Radical scavenging ability was determined for each of the test solutions according to the following equation.
Radical scavenging rate (%)=(Absorbance of control−Absorbance of test solution[…])×100

[3] = system: Blood Pressure of SHR Rat; test: Effect on blood pressure of SHR rat (oral administration); type: in vivo, male SHR/Izm rats; conditions: mean ± SD (n = 4-5); for Blood pressure, 1 hr: 1 hr after 30 mg/kg orally; for Blood pressure, 2 hr: 2 hr after 30 mg/kg orally; for Blood pressure, 3 hr: 3 hr after 30 mg/kg orally; for Blood pressure, 4 hr: 4 hr after 30 mg/kg orally; for Blood pressure, 0 hr: initial value (0 hr) before administration
Experimental: The present compound was tested for its blood pressure lowering effect.
About 25-week old male SHR/Izm rats were used in the test.
Initial value of the blood pressure of rat tail vein was measured with a non-invasive automatic manometer for small animals, UR-5000 (UEDA Seisakusho), and then one of the test compounds 30 mg/kg was orally administered. Blood pressure was measured in the same manner 1, 2, 3 and 4 hours after administration. For analysis, Student t-test was conducted for the blood pressure measured at each time against the initial value.

SMILES | melting point | Intraocular pressure, 1 hr [1] | Intraocular pressure, 2 hr [1] | Intraocular pressure, 3 hr [1] | Intraocular pressure, 4 hr [1] | Intraocular pressure, 0 hr [1] [mmHg] | Blood pressure, 1 hr [3] | Blood pressure, 2 hr [3] | Blood pressure, 3 hr [3] | Blood pressure, 4 hr [3] | Blood pressure, 0 hr [3] [mmHg] | other results
COc1ccccc1N1CCN(CC(O)COc2ccc(O)cc2C)CC1.Cl.Cl (stereo not shown) | 192 to 194 °C (dec.) |  |  |  |  |  |  |  |  |  |  | 
COc1ccccc1N1CCN(CC(O)COc2c(C)cc(O)c3ccccc23)CC1.Cl.Cl (stereo not shown) [Example 4, 1-(2-Methyl-4-hydroxynaphthoxy)-3-[4-(2-methoxyphenyl)-1-piperazinyl]propan-2-ol dihydrochloride] |  | 17.3 ± 2.06^*3 mmHg | 15.0 ± 3.74^*2 mmHg | 15.8 ± 2.06^*3 mmHg | 20.8 ± 2.22^*2 mmHg | 26.5 ± 1.75 | 201.8 ± 7.7^*3 mmHg | 207.8 ± 13.8^*2 mmHg | 212.2 ± 3.8^*3 mmHg | 212.2 ± 20.8^*1 mmHg | 240.0 ± 8.5 | Intraocular pressure lowering effect (in words) ([1]; 0.5% eye drops): a potent intraocular pressure lowering effect was observed since one hour after instillation; Time of peak intraocular pressure lowering effect after instillation ([1]; 0.5% eye drops): 2 h; IC50 [2]: 42 µM; Radical scavenging activity (in words) [2]: concentration-dependently exhibited a radical scavenging activity; Radical scavenging rate (%) ([2]; final concentration 1 μM): 6.7%; Radical scavenging rate (%) ([2]; final concentration 10 μM): 16.6%; Radical scavenging rate (%) ([2]; final concentration 30 μM): 37.7%; Radical scavenging rate (%) ([2]; final concentration 100 μM): 75.4%; Radical scavenging rate (%) ([2]; final concentration 1000 μM): 91.7%
COc1ccccc1N1CCN(CC(O)COc2ccc(O)c(C(C)(C)C)c2)CC1.Cl (stereo not shown) [Example 20, 1-(3-tert-Butyl-4-hydroxyphenoxy)-3-[4-(2-methoxyphenyl)-1-piperazinyl]propan-2-ol hydrochloride] | 170 to 172 °C | 22.2 ± 2.59^*1 mmHg | 25.2 ± 0.84 mmHg | 25.8 ± 2.59 mmHg | 28.0 ± 1.73 mmHg | 28.0 ± 3.81 | 204.8 ± 16.9^*2 mmHg | 215.0 ± 11.0^*2 mmHg | 217.5 ± 15.2^*1 mmHg | 216.3 ± 18.0^*1 mmHg | 250.3 ± 14.3 | 
COc1ccccc1N1CCN(CC(O)COc2cc(C)c(O)c(C)c2C)CC1 (stereo not shown) [Example 23, 1-(2,3,5-Trimethyl-4-hydroxyphenoxy)-3-[4-(2-methoxyphenyl)-1-piperazinyl]propan-2-ol] | 163 to 165 °C | 20.8 ± 3.30^*1 mmHg | 22.8 ± 3.40 mmHg | 22.5 ± 3.42 mmHg | 23.8 ± 3.30 mmHg | 27.5 ± 3.42 | 193.3 ± 15.4 mmHg | 192.0 ± 10.8 mmHg | 179.3 ± 7.8^*1 mmHg | 192.0 ± 15.1 mmHg | 204.0 ± 14.4 | 
COc1ccc(C)cc1N1CCN(CC(O)COc2ccc(O)cc2)CC1.Cl.Cl (stereo not shown) | 222 to 224 °C |  |  |  |  |  |  |  |  |  |  | 
COc1ccccc1N1CCN(CC(O)COc2cc(C)c(O)c3ccccc23)CC1 (stereo not shown) [Example 2, 1-(3-Methyl-4-hydroxynaphthoxy)-3-[4-(2-methoxyphenyl)-1-piperazinyl]propan-2-ol] |  | 21.8 ± 2.05^*1 mmHg | 24.4 ± 1.82 mmHg | 25.8 ± 2.39 mmHg | 26.6 ± 2.88 mmHg | 25.2 ± 1.30 | 204.0 ± 17.6 mmHg | 192.2 ± 6.2^*1 mmHg | 191.2 ± 14.6^*1 mmHg | 187.8 ± 11.4^*1 mmHg | 216.8 ± 18.0 | IC50 [2]: 23 µM; Radical scavenging activity (in words) [2]: concentration-dependently exhibited a radical scavenging activity; Radical scavenging rate (%) ([2]; final concentration 1 μM): 7.8%; Radical scavenging rate (%) ([2]; final concentration 10 μM): 24.9%; Radical scavenging rate (%) ([2]; final concentration 30 μM): 61.0%; Radical scavenging rate (%) ([2]; final concentration 100 μM): 99.4%; Radical scavenging rate (%) ([2]; final concentration 1000 μM): 99.8%
COc1ccccc1N1CCN(C(Oc2cc(C)c(O)c(OC)c2OC)C(C)O)CC1.Cl (stereo not shown) | 138 to 140 °C |  |  |  |  |  |  |  |  |  |  | 
COc1ccc(N2CCN(CC(O)COc3ccc(O)cc3)CC2)c(OC)c1.Cl.Cl (stereo not shown) | 213 to 215 °C (dec.) |  |  |  |  |  |  |  |  |  |  | 
COc1ccc(OC)c(N2CCN(CC(O)COc3ccc(O)cc3)CC2)c1.Cl.Cl (stereo not shown) [Example 25, 1-(4-Hydroxyphenoxy)-3-[4-(2,5-dimethoxyphenyl)-1-piperazinyl]propan-2-ol dihydrochloride] | 205 to 207 °C | 26.8 ± 1.92^*2 mmHg | 25.4 ± 1.82^*2 mmHg | 28.6 ± 6.11 mmHg | 29.6 ± 2.07 mmHg | 31.6 ± 2.41 |  |  |  |  |  | 
COc1ccccc1N1CCN(CC(O)COc2cc(C)c(O)cc2C)CC1.Cl.Cl (stereo not shown) | 214 to 215 °C (dec.) |  |  |  |  |  |  |  |  |  |  | 
COc1ccccc1N1CCN(CC(O)COc2ccc(O)c(C)c2C)CC1.Cl (stereo not shown) [Example 22, 1-(2,3-Dimethyl-4-hydroxyphenoxy)-3-[4-(2-methoxyphenyl)-1-piperazinyl]propan-2-ol hydrochloride] | 228 to 230 °C (dec.) |  |  |  |  |  | 218.3 ± 11.3^*1 mmHg | 231.0 ± 14.5 mmHg | 236.5 ± 9.1 mmHg | 241.0 ± 9.8 mmHg | 247.0 ± 10.7 | 
COc1ccccc1N1CCN(CC(O)COc2ccc(O)c(C)c2)CC1.Cl.Cl (stereo not shown) | 214 to 216 °C (dec.) |  |  |  |  |  |  |  |  |  |  | 
COc1ccccc1N1CCN(CC(O)COc2cc(C)c(O)c(C)c2)CC1.Cl.Cl (stereo not shown) [Example 17, 1-(3,5-Dimethyl-4-hydroxyphenoxy)-3-[4-(2-methoxyphenyl)-1-piperazinyl]propan-2-ol dihydrochloride] | 208 to 210 °C (dec.) | 25.4 ± 2.79^*1 mmHg | 25.4 ± 2.88^*1 mmHg | 27.0 ± 3.08 mmHg | 28.6 ± 4.22 mmHg | 30.0 ± 3.08 | 214.8 ± 9.9^*1 mmHg | 230.8 ± 13.0 mmHg | 225.0 ± 13.0 mmHg | 219.5 ± 10.6 mmHg | 247.3 ± 23.2 | 
COc1ccc(OC)c(N2CCN(CC(O)COc3ccc(O)cc3C)CC2)c1.Cl.Cl (stereo not shown) | 168 to 170 °C (dec.) |  |  |  |  |  |  |  |  |  |  | 

From patent US6358515B2, “Hydroquinone derivatives” (Senju Pharmaceutical Co., Ltd., priority 1997, dated 2002)
